Source: paper PMC11336974 (2024)

Experiments:
[1] = system: miR-193a-3p (RNA, miRNA) AACUGGCCUACAAAGUCCCAGU; experiment: ITC; conditions: 190 mM NaCl; 20 mM HEPES pH 7.2, 1 mM EDTA, 37.5 µg/ml BSA, 0.02% Tween-20; apparent
[2] = system: mutated miR-193a-3p (miR-193a-mut) (RNA, miRNA) AACUUCCUACAAAGUCCCAGU; experiment: ITC; conditions: 190 mM NaCl; 20 mM HEPES pH 7.2, 1 mM EDTA, BSA, Tween-20; 200 µM Trp titrant
[3] = system: miR-193a-3p (RNA, miRNA) AACUGGCCUACAAAGUCCCAGU; experiment: CD spectra; conditions: 190 mM NaCl; 20 mM HEPES pH 7.2, 1 mM EDTA, BSA, Tween-20; 100 nM RNA, 200 µM Trp
[4] = system: mutated miR-193a-3p (miR-193a-mut) (RNA, miRNA) AACUUCCUACAAAGUCCCAGU; experiment: CD spectra; conditions: 190 mM NaCl; 20 mM HEPES pH 7.2, 1 mM EDTA, BSA, Tween-20; 200 µM Trp
[5] = system: miR-193a-5p (RNA, miRNA) UGGGUCUUUGCGGGCAAGAUGA; experiment: CD spectra; conditions: 190 mM NaCl; 20 mM HEPES pH 7.2, 1 mM EDTA, BSA, Tween-20; 200 µM Trp
[6] = system: biotinylated miR-193a-3p (RNA, miRNA) AACUGGCCUACAAAGUCCCAGU; experiment: SPR (OpenSPR); conditions: 190 mM NaCl; 10 mM HEPES, 1 mM EDTA, 0.02% Tween-20; Trp 2, 20, 200 µM

Q: N[C@@H](Cc1c[nH]c2ccccc12)C(=O)O was tested. Which Kd [1] did it give?
A: Its Kd is 5.3 µM.

Q: What about the binding [2] of the same compound?
A: The binding was “no”.

Q: And the binding [3]?
A: The binding was “yes”.

Q: What about the binding [4] of the same compound?
A: The binding was “no”.

Q: What about the binding [5] of the same compound?
A: Its binding is “no”.

Q: What about the binding [6] of the same compound?
A: Its binding is “yes”.
